# From EP4725957A1, “GROUP OF CYCLIC ALKALINE LIPOPEPTIDE COMPOUNDS, AND PREPARATION METHOD THEREFOR AND USE THEREOF” (Institute of Medicinal Biotechnology, Chinese Academy of …, priority 2023, dated 2024)
# Bridge positions count the residues as written; N and C are the ends. Square brackets hold non-standard residues; d marks the D form. Peptide text beside a SMILES is read from it. * marks the point of attachment. Heptanoyl(6-Me) = CC(C)CCCCC(=O)*; Nonanoyl = CCCCCCCCC(=O)*; X1 = CC[C@H](C)CCCCC(=O)*; Heptanoyl = CCCCCCC(=O)*; Octanoyl = CCCCCCCC(=O)*; Orn = NCCC[C@H](N)C(=O)O; Dab = NCC[C@H](N)C(=O)O; Dap = NC[C@H](N)C(=O)O
# Key:
# Format in all cases: cell-based
# [1] = Nephrotoxicity assay: in vitro cytotoxicity of HK-2 cells by CCK-8 assay; conditions: human, HK-2 cells (human renal), 72 h incubation with drug-containing medium
# How it was run: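 HK-2 human renal cells in RPMI-1640 with 10% FBS were exposed to compounds at final 12.5–500 µg/mL for 72 h, then CCK-8 for 3 h and OD450 read. Viability was normalised to drug-free wells; IC50 came from logarithmic regression over three repeats, with polymyxin B as positive drug.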
# [2] = system: Acinetobacter baumannii NCTC 13304 (OXA-27); conditions: NCTC 13304
# How it was run: (§1)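 Minimal inhibitory concentrations are measured following CLSI microdilution guidance in MH broth. Test concentrations run from 64 down to 0.03 mg/L in doubling steps, with a final bacterial load of (2-4) × 10^5 CFU/mL and 16-20 h incubation at 35-37°C.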
# [3] = system: Escherichia coli ATCC BAA-2523; conditions: ATCC BAA-2523
# How it was run: as §1
# [4] = system: Pseudomonas aeruginosa ATCC 27853; conditions: ATCC 27853
# How it was run: as §1
# [5] = system: Acinetobacter baumannii ABA19-1; conditions: ABA19-1
# How it was run: as §1
# [6] = system: Pseudomonas aeruginosa PAE19-3; conditions: PAE19-3
# How it was run: as §1
# [7] = system: Klebsiella pneumoniae ATCC BAA-1705 (KPC); conditions: ATCC BAA-1705
# How it was run: as §1
# [8] = system: Klebsiella pneumoniae KPN+19-15; conditions: KPN+19-15
# How it was run: as §1
# [9] = system: Escherichia coli ATCC BAA-2340 (KPC); conditions: ATCC BAA-2340
# How it was run: as §1
Compound,IC50 at 72 h [1] [µg/mL],MIC [2] [µg/mL],MIC [3] [µg/mL],MIC [4] [µg/mL],MIC [5] [µg/mL],MIC [6] [µg/mL],MIC [7] [µg/mL],MIC [8] [µg/mL],MIC [9] [µg/mL]
"CCCCCCC(=O)N[C@@H](CCN)C(=O)N[C@H](C(=O)N[C@H](CO)C(=O)N[C@H]1CCNC(=O)[C@H]([C@@H](C)O)NC(=O)[C@H](CCN)NC(=O)[C@H](CCN)NC(=O)[C@H]([C@@H](C)O)NC(=O)[C@@H](Cc2ccccc2)NC(=O)[C@H](CCCN)NC1=O)[C@@H](C)O [Compound 69, Heptanoyl-Dab-Thr-D-Ser-ring(4-10)[Dab-Orn-D-Phe-Thr-Dab-Dab-Thr]] (Heptanoyl-[Dab]T[dS][Dab][Orn][dF]T[Dab][Dab]T; lactam 4-C)",> 500,0.25,0.5,64,0.25,8,0.25,0.5,0.5
"CCCCCCCCC(=O)N[C@@H](CCN)C(=O)N[C@H](C(=O)N[C@H](CO)C(=O)N[C@H]1CCNC(=O)[C@H]([C@@H](C)O)NC(=O)[C@H](CCN)NC(=O)[C@H](CCN)NC(=O)[C@H]([C@@H](C)O)NC(=O)[C@@H](Cc2ccccc2)NC(=O)[C@H](CCCN)NC1=O)[C@@H](C)O [Compound 70, Nonanoyl-Dab-Thr-D-Ser-ring(4-10)[Dab-Orn-D-Phe-Thr-Dab-Dab-Thr]] (Nonanoyl-[Dab]T[dS][Dab][Orn][dF]T[Dab][Dab]T; lactam 4-C)",384 ± 29.5,0.25,0.5,64,0.25,8,0.25,0.5,0.5
"CC[C@H](C)CCCCC(=O)N[C@@H](CCN)C(=O)N[C@H](C(=O)N[C@H](CO)C(=O)N[C@H]1CCNC(=O)[C@H]([C@@H](C)O)NC(=O)[C@H](CCN)NC(=O)[C@H](CN)NC(=O)[C@H]([C@@H](C)O)NC(=O)[C@@H](Cc2ccccc2)NC(=O)[C@H](CCN)NC1=O)[C@@H](C)O [Compound 71, (S)-6-methyloctanoyl-Dab-Thr-D-Ser-ring(4-10)[Dab-Dab-D-Phe-Thr-Dap-Dab-Thr]] (X1-[Dab]T[dS][Dab][Dab][dF]T[Dap][Dab]T; lactam 4-C)",> 500,≤0.03,≤0.03,>64,0.06,64,0.25,0.5,≤0.03
"CC(C)CCCCC(=O)N[C@@H](CCN)C(=O)N[C@H](C(=O)N[C@H](CO)C(=O)N[C@H]1CCNC(=O)[C@H]([C@@H](C)O)NC(=O)[C@H](CCN)NC(=O)[C@H](CN)NC(=O)[C@H]([C@@H](C)O)NC(=O)[C@@H](Cc2ccccc2)NC(=O)[C@H](CCN)NC1=O)[C@@H](C)O [Compound 72, 6-methylheptanoyl-Dab-Thr-D-Ser-ring(4-10)[Dab-Dab-D-Phe-Thr-Dap-Dab-Thr]] ({Heptanoyl(6-Me)}-[Dab]T[dS][Dab][Dab][dF]T[Dap][Dab]T; lactam 4-C)",> 500,≤0.03,≤0.03,>64,0.06,64,0.25,0.5,≤0.03
"CCCCCCCC(=O)N[C@@H](CCN)C(=O)N[C@H](C(=O)N[C@H](CO)C(=O)N[C@H]1CCNC(=O)[C@H]([C@@H](C)O)NC(=O)[C@H](CCN)NC(=O)[C@H](CN)NC(=O)[C@H]([C@@H](C)O)NC(=O)[C@@H](Cc2ccccc2)NC(=O)[C@H](CCN)NC1=O)[C@@H](C)O [Compound 73, Octanoyl-Dab-Thr-D-Ser-ring(4-10)[Dab-Dab-D-Phe-Thr-Dap-Dab-Thr]] (Octanoyl-[Dab]T[dS][Dab][Dab][dF]T[Dap][Dab]T; lactam 4-C)",> 500,≤0.03,≤0.03,>64,0.06,64,0.25,0.5,≤0.03
"CCCCCCC(=O)N[C@@H](CCN)C(=O)N[C@H](C(=O)N[C@H](CO)C(=O)N[C@H]1CCNC(=O)[C@H]([C@@H](C)O)NC(=O)[C@H](CCN)NC(=O)[C@H](CN)NC(=O)[C@H]([C@@H](C)O)NC(=O)[C@@H](Cc2ccccc2)NC(=O)[C@H](CCN)NC1=O)[C@@H](C)O [Compound 74, Heptanoyl-Dab-Thr-D-Ser-ring(4-10)[Dab-Dab-D-Phe-Thr-Dap-Dab-Thr]] (Heptanoyl-[Dab]T[dS][Dab][Dab][dF]T[Dap][Dab]T; lactam 4-C)",> 500,0.03,0.06,>64,0.06,64,0.25,0.5,0.06
